# Results published in US20260242391A1 (priority 2023, published 2026).
# What was measured:
# HL-60 = HL-60 differentiation potency; assay type: cell-based; details: Homo sapiens
# in vitro = details: human
compound,measurement,setting,value
"C[C@H]1[C@@H](Oc2ccc(OC3(C(=O)O)CC3)cc2)O[C@@H]2O[C@@]3(C)CC[C@H]4[C@H](C)CC[C@@H]1[C@@]24OO3 [Compound 268, 1-(4-(((3R,5aS,6R,8aS, 9R,10S,12R, 12aR)-3,6,9-trimethyldeca-hydro-12H-3,12-epoxy[1,2]dioxepino[4,3-i]isochromen-10-yl)oxy)phenoxy) cyclopropane-1-carboxylic acid]",EC50,HL-60,48.9 nM
same,IC50,in vitro,4280 nM
"C[C@H]1[C@@H](OCc2ccc(N3C(=O)N(CC(=O)O)C(C)(C)C3=O)cc2)O[C@@H]2O[C@@]3(C)CC[C@H]4[C@H](C)CC[C@@H]1[C@@]24OO3 [Compound 296, 2-(5,5-dimethyl-2,4-dioxo-3-(4-((((3R,5aS,6R,8aS, 9R,10S,12R, 12aR)-3,6,9-trimethyldeca-hydro-12H-3,12-epoxy[1,2]dioxepino[4,3-i]isochromen-10-yl)oxy)methyl)phenyl)imidazolidin-1-yl)acetic acid]",EC50,HL-60,2910 nM
same,IC50,in vitro,> 20000 nM
"C[C@H]1[C@@H](OCc2ccc(C(=O)N3C[C@@H](F)C[C@H]3C(=O)O)cc2)O[C@@H]2O[C@@]3(C)CC[C@H]4[C@H](C)CC[C@@H]1[C@@]24OO3 [Compound 276, (2S,4S)-4-fluoro-1-(4-((((3R,5aS,6R,8aS, 9R,10S,12R, 12aR)-3,6,9-trimethyldeca-hydro-12H-3,12-epoxy[1,2]dioxepino[4,3-i]isochromen-10-yl)oxy)methyl)benzoyl) pyrrolidine-2-carboxylic acid]",EC50,HL-60,> 20000 nM
same,IC50,in vitro,> 20000 nM
"CC(C)[C@H](Oc1ccc(O[C@H]2O[C@@H]3O[C@@]4(C)CC[C@H]5[C@H](C)CC[C@@H]([C@H]2C)[C@@]35OO4)cc1)C(=O)O [Compound 261, (S)-3-methyl-2-(4-(((3R,5aS,6R,8aS, 9R,10S,12R, 12aR)-3,6,9-trimethyldeca-hydro-12H-3,12-epoxy[1,2]dioxepino[4,3-i]isochromen-10-yl)oxy)phenoxy) butanoic acid]",EC50,HL-60,< 10 nM
same,IC50,in vitro,360 nM
"C[C@H]1[C@H](OCc2ccc(C(=O)O)cc2C(F)(F)F)O[C@@H]2O[C@@]3(C)CC[C@H]4[C@H](C)CC[C@@H]1[C@@]24OO3 [Compound 195, 3-(trifluoromethyl)-4-((((3R,5aS,6R,8aS, 9R,10R,12R, 12aR)-3,6,9-trimethyldeca-hydro-12H-3,12-epoxy[1,2]dioxepino[4,3-i]isochromen-10-yl)oxy)methyl) benzoic acid]",EC50,HL-60,156 nM
same,IC50,in vitro,10000 nM
"C[C@H]1[C@@H](Oc2ccc(C(=O)N(C)[C@H]3CC[C@@H](C(=O)O)C3)cc2)O[C@@H]2O[C@@]3(C)CC[C@H]4[C@H](C)CC[C@@H]1[C@@]24OO3 [Compound 272, (1R,3S)-3-(N-methyl-4-(((3R,5aS,6R,8aS, 9R,10S,12R, 12aR)-3,6,9-trimethyldeca-hydro-12H-3,12-epoxy[1,2]dioxepino[4,3-i]isochromen-10-yl)oxy)benzamido) cyclopentane-1-carboxylic acid]",EC50,HL-60,105 nM
same,IC50,in vitro,9270 nM
"C[C@H]1[C@@H](Oc2ccccc2OCC(=O)O)O[C@@H]2O[C@@]3(C)CC[C@H]4[C@H](C)CC[C@@H]1[C@@]24OO3 [Compound 230, 2-(2-(((3R,5aS,6R,8aS, 9R,10S,12R, 12aR)-3,6,9-trimethyldeca-hydro-12H-3,12-epoxy[1,2]dioxepino[4,3-i]isochromen-10-yl)oxy)phenoxy) acetic acid]",EC50,HL-60,2870 nM
same,IC50,in vitro,> 20000 nM
"C[C@H]1[C@@H](Oc2ccc(Cn3cc(C(=O)O)nn3)cc2)O[C@@H]2O[C@@]3(C)CC[C@H]4[C@H](C)CC[C@@H]1[C@@]24OO3 [Compound 245, 1-(4-(((3R,5aS,6R,8aS, 9R,10S,12R, 12aR)-3,6,9-trimethyldeca-hydro-12H-3,12-epoxy[1,2]dioxepino[4,3-i]isochromen-10-yl)oxy)benzyl)-1H-1,2,3-triazole-4-carboxylic acid]",EC50,HL-60,1340 nM
same,IC50,in vitro,> 20000 nM
